Measurements taken from patent publication US20250235460A1, “COMBINATION THERAPY USING GLUCOSE-DEPENDENT INSULINOTROPIC POLYPEPTIDE RECEPTOR ANTAGONIST COMPOUNDS AND GLP-1 RECEPTOR AGONIST COMPOUNDS” (Pfizer Inc., priority 2024, published 2025).

Assays:
human GLP-1R [1] = target: human GLP-1R (Homo sapiens, UniProt P43220, G168S); test: CHO GLP-1R Clone H6 cAMP HTRF agonist assay (Assay 1, high receptor density); type: cell-based; conditions: for EC50: CHO GLP-1R clone H6, cAMP HTRF, geometric mean; for Emax: read-out: Assay 1 Emax (%)
Summary of the method: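 From replicate determinations, mean EC50 (geometric) and mean Emax (arithmetic) were derived and expressed to two significant figures.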

human GLP-1R [2] = target: human GLP-1R (Homo sapiens, UniProt P43220, L260F); test: CHO GLP-1R Clone C6 cAMP HTRF agonist assay (Assay 2, low receptor density); type: cell-based; conditions: for EC50: CHO GLP-1R clone C6, cAMP HTRF, geometric mean
Excerpt: In Table 5 and Table 6, assay data are presented to two (2) significant figures as the geometric mean (EC50s) and arithmetic mean (Emax) based on the number of replicates listed (Number). A blank cell means there was no data for that Example or the Emax was not calculated.

[3] = CHO GLP-1R clone H6, arithmetic mean, relative to saturating GLP-1 (1 μM)
[4] = CHO GLP-1R clone C6, arithmetic mean, relative to saturating GLP-1 (1 μM)

Chain of human GLP-1R (Homo sapiens, UniProt P43220, L260F) (P43220 24-463 L260F): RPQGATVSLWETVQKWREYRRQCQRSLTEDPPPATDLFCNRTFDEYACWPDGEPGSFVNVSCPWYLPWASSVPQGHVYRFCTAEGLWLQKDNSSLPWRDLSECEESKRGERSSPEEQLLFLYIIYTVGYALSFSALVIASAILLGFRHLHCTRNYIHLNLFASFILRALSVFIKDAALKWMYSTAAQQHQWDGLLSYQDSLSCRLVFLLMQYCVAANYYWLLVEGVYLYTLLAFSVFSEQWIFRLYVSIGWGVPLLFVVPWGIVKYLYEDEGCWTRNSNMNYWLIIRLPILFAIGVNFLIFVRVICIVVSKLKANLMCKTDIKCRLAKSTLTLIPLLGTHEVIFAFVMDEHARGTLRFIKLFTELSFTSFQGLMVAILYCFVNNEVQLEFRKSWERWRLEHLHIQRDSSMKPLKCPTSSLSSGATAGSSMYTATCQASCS
Chain of human GLP-1R (Homo sapiens, UniProt P43220, G168S) (P43220 24-463 G168S): as the sequence (P43220 24-463 L260F) above, with G145S, F237L counted along it

C[C@H]1CN(c2cccc(OCc3ccc(Cl)cc3F)n2)CCN1Cc1nc2ccc(C(=O)O)cc2n1C[C@@H]1CCO1 [Compound 135B, 2-{[(2S)-4-{6-[(4-chloro-2-fluorobenzyl)oxy]pyridin-2-yl}-2-methylpiperazin-1-yl]methyl}-1-[(2S)-oxetan-2-ylmethyl]-1H-benzimidazole-6-carboxylic acid]
EC50 (human GLP-1R [1]): 260 nM
Emax (human GLP-1R [1]; [3]): 88%
EC50 (human GLP-1R [2]): 5600 nM
Emax (human GLP-1R [2]; [4]): 86%

C[C@H]1CN(c2cccc(OCc3ccc(Cl)cc3F)n2)CCN1Cc1nc2ccc(C(=O)O)nc2n1C[C@@H]1CCO1 [Compound 136B, 2-{[(2S)-4-{6-[(4-chloro-2-fluorobenzyl)oxy]pyridin-2-yl}-2-methylpiperazin-1-yl]methyl}-3-[(2S)-oxetan-2-ylmethyl]-3H-imidazo[4,5-b]pyridine-5-carboxylic acid]
EC50 (human GLP-1R [1]): 150 nM
Emax (human GLP-1R [1]; [3]): 86%
EC50 (human GLP-1R [2]): 4100 nM
Emax (human GLP-1R [2]; [4]): 110%

C[C@H]1CN(c2cccc(OCc3ccc(C#N)cc3F)n2)CCN1Cc1nc2ccc(C(=O)O)nc2n1C[C@@H]1CCO1 [Compound 137B, 2-{[(2S)-4-{6-[(4-cyano-2-fluorobenzyl)oxy]pyridin-2-yl}-2-methylpiperazin-1-yl]methyl}-3-[(2S)-oxetan-2-ylmethyl]-3H-imidazo[4,5-b]pyridine-5-carboxylic acid]
EC50 (human GLP-1R [1]): 90 nM
Emax (human GLP-1R [1]; [3]): 76%
EC50 (human GLP-1R [2]): 1800 nM
Emax (human GLP-1R [2]; [4]): 89%

C[C@H]1CN(c2cccc(OCc3ccc(C#N)cc3)n2)CCN1Cc1nc2ccc(C(=O)O)cc2n1C[C@@H]1CCO1 [Compound 138B, 2-{[(2S)-4-{6-[(4-cyanobenzyl)oxy]pyridin-2-yl}-2-methylpiperazin-1-yl]methyl}-1-[(2S)-oxetan-2-ylmethyl]-1H-benzimidazole-6-carboxylic acid]
Assay 1 Emax (%) (human GLP-1R [1]; [3]): 95%
Assay 2 Emax (%) (human GLP-1R [2]; [4]): 89%

N#Cc1ccc(COc2cccc(C3CCN(Cc4nc5ccc(C(=O)O)cc5n4Cc4ncco4)CC3)n2)c(F)c1 [Compound 139B, 2-[(4-{6-[(4-cyano-2-fluorobenzyl)oxy]pyridin-2-yl}piperidin-1-yl)methyl]-1-(1,3-oxazol-2-ylmethyl)-1H-benzimidazole-6-carboxylic acid]
EC50 (human GLP-1R [1]): 150 nM
Emax (human GLP-1R [1]; [3]): 74%
EC50 (human GLP-1R [2]): 1200 nM
Emax (human GLP-1R [2]; [4]): 44%

N#Cc1ccc(COc2cccc(N3CCN(Cc4nc5ccc(C(=O)O)cc5n4Cc4ncco4)CC3)n2)c(F)c1 [Compound 140B, 2-[(4-{6-[(4-cyano-2-fluorobenzyl)oxy]pyridin-2-yl}piperazin-1-yl)methyl]-1-(1,3-oxazol-2-ylmethyl)-1H-benzimidazole-6-carboxylic acid]
EC50 (human GLP-1R [1]): 36 nM
Emax (human GLP-1R [1]; [3]): 84%
EC50 (human GLP-1R [2]): 150 nM
Emax (human GLP-1R [2]; [4]): 92%

N#Cc1ccc(COc2cccc(C3CCN(Cc4nc5ccc(C(=O)O)cc5n4Cc4cnco4)CC3)n2)c(F)c1 [Compound 141B, 2-[(4-{6-[(4-cyano-2-fluorobenzyl)oxy]pyridin-2-yl}piperidin-1-yl)methyl]-1-(1,3-oxazol-5-ylmethyl)-1H-benzimidazole-6-carboxylic acid]
EC50 (human GLP-1R [1]): 6 nM
Emax (human GLP-1R [1]; [3]): 73%
EC50 (human GLP-1R [2]): 150 nM
Emax (human GLP-1R [2]; [4]): 84%

N#Cc1ccc(COc2cccc(N3CCN(Cc4nc5ccc(C(=O)O)cc5n4Cc4cnco4)CC3)n2)c(F)c1 [Compound 142B, 2-[(4-{6-[(4-cyano-2-fluorobenzyl)oxy]pyridin-2-yl}piperazin-1-yl)methyl]-1-(1,3-oxazol-5-ylmethyl)-1H-benzimidazole-6-carboxylic acid]
EC50 (human GLP-1R [1]): 9 nM
Emax (human GLP-1R [1]; [3]): 82%
EC50 (human GLP-1R [2]): 170 nM
Emax (human GLP-1R [2]; [4]): 85%

Cn1cncc1Cn1c(CN2CCC(c3cccc(OCc4ccc(Cl)cc4F)n3)CC2)nc2ccc(C(=O)O)cc21 [Compound 143B, 2-[(4-{6-[(4-chloro-2-fluorobenzyl)oxy]pyridin-2-yl}piperidin-1-yl)methyl]-1-[(1-methyl-1H-imidazol-5-yl)methyl]-1H-benzimidazole-6-carboxylic acid]
EC50 (human GLP-1R [1]): 140 nM
Emax (human GLP-1R [1]; [3]): 72%
EC50 (human GLP-1R [2]): 1600 nM
Emax (human GLP-1R [2]; [4]): 46%

Cn1nncc1Cn1c(CN2CCC(c3cccc(OCc4ccc(Cl)cc4F)n3)CC2)nc2ccc(C(=O)O)cc21 [Compound 144B, 2-[(4-{6-[(4-chloro-2-fluorobenzyl)oxy]pyridin-2-yl}piperidin-1-yl)methyl]-1-[(1-methyl-1H-1,2,3-triazol-5-yl)methyl]-1H-benzimidazole-6-carboxylic acid]
EC50 (human GLP-1R [1]): 5.8 nM
Emax (human GLP-1R [1]; [3]): 72%
EC50 (human GLP-1R [2]): 94 nM
Emax (human GLP-1R [2]; [4]): 76%

O=C(O)c1ccc2nc(CN3CCC(c4cccc(OCc5ccc(Cl)cc5F)n4)CC3)n(Cc3cnco3)c2c1 [Compound 145B, 2-[(4-{6-[(4-chloro-2-fluorobenzyl)oxy]pyridin-2-yl}piperidin-1-yl)methyl]-1-(1,3-oxazol-5-ylmethyl)-1H-benzimidazole-6-carboxylic acid]
EC50 (human GLP-1R [1]): 120 nM
Emax (human GLP-1R [1]; [3]): 76%
EC50 (human GLP-1R [2]): 2200 nM
Emax (human GLP-1R [2]; [4]): 83%

C[C@H]1CN(c2cccc(OCc3ccc(C#N)cc3F)n2)CCN1Cc1nc2ccc(C(=O)O)cc2n1Cc1ncco1 [Compound 146B, 2-{[(2S)-4-{6-[(4-cyano-2-fluorobenzyl)oxy]pyridin-2-yl}-2-methylpiperazin-1-yl]methyl}-1-(1,3-oxazol-2-ylmethyl)-1H-benzimidazole-6-carboxylic acid]
EC50 (human GLP-1R [1]): 43 nM
Emax (human GLP-1R [1]; [3]): 82%
EC50 (human GLP-1R [2]): 680 nM
Emax (human GLP-1R [2]; [4]): 110%

O=C(O)c1ccc2nc(CN3CCC(c4cccc(OCc5ccc(F)cc5F)n4)CC3)n(Cc3ncco3)c2c1 [Compound 149B, 2-[(4-{6-[(2,4-difluorobenzyl)oxy]pyridin-2-yl}piperidin-1-yl)methyl]-1-(1,3-oxazol-2-ylmethyl)-1H-benzimidazole-6-carboxylic acid]
EC50 (human GLP-1R [1]): 770 nM
Emax (human GLP-1R [1]; [3]): 78%
EC50 (human GLP-1R [2]): > 15000 nM
Emax (human GLP-1R [2]; [4]): 100%

CCn1cncc1Cn1c(CN2CCC(c3cccc(OCc4ccc(F)cc4F)n3)CC2)nc2ccc(C(=O)O)cc21 [Compound 150B, 2-[(4-{6-[(2,4-difluorobenzyl)oxy]pyridin-2-yl}piperidin-1-yl)methyl]-1-[(1-ethyl-1H-imidazol-5-yl)methyl]-1H-benzimidazole-6-carboxylic acid]
EC50 (human GLP-1R [1]): 110 nM
Emax (human GLP-1R [1]; [3]): 71%
EC50 (human GLP-1R [2]): 3000 nM
Emax (human GLP-1R [2]; [4]): 92%

O=C(O)c1ccc2nc(CN3CCN(c4cccc(OCc5ccc(Cl)cc5F)n4)CC3)n(Cc3ncco3)c2c1 [Compound 151B, 2-[(4-{6-[(4-chloro-2-fluorobenzyl)oxy]pyridin-2-yl}piperazin-1-yl)methyl]-1-(1,3-oxazol-2-ylmethyl)-1H-benzimidazole-6-carboxylic acid]
EC50 (human GLP-1R [1]): 22 nM
Emax (human GLP-1R [1]; [3]): 87%
EC50 (human GLP-1R [2]): 280 nM

Cn1cncc1Cn1c(CN2CCN(c3cccc(OCc4ccc(Cl)cc4F)n3)CC2)nc2ccc(C(=O)O)cc21 [Compound 153B, 2-[(4-{6-[(4-chloro-2-fluorobenzyl)oxy]pyridin-2-yl}piperazin-1-yl)methyl]-1-[(1-methyl-1H-imidazol-5-yl)methyl]-1H-benzimidazole-6-carboxylic acid]
EC50 (human GLP-1R [1]): 24 nM
Emax (human GLP-1R [1]; [3]): 76%
EC50 (human GLP-1R [2]): 1200 nM
Emax (human GLP-1R [2]; [4]): 94%

Cn1cncc1Cn1c(CN2CCN(c3cccc(OCc4ccc(C#N)cc4F)n3)CC2)nc2ccc(C(=O)O)cc21 [Compound 154B, 2-[(4-{6-[(4-cyano-2-fluorobenzyl)oxy]pyridin-2-yl}piperazin-1-yl)methyl]-1-[(1-methyl-1H-imidazol-5-yl)methyl]-1H-benzimidazole-6-carboxylic acid]
EC50 (human GLP-1R [1]): 6 nM
Emax (human GLP-1R [1]; [3]): 80%
EC50 (human GLP-1R [2]): 78 nM
Emax (human GLP-1R [2]; [4]): 88%

O=C(O)c1ccc2nc(CN3CCC(c4cccc(OCc5ccc(Cl)cc5F)n4)CC3)n(Cc3cocn3)c2c1 [Compound 155B, 2-[(4-{6-[(4-chloro-2-fluorobenzyl)oxy]pyridin-2-yl}piperidin-1-yl)methyl]-1-(1,3-oxazol-4-ylmethyl)-1H-benzimidazole-6-carboxylic acid]
EC50 (human GLP-1R [1]): 7.9 nM
Emax (human GLP-1R [1]; [3]): 80%
EC50 (human GLP-1R [2]): 150 nM
Emax (human GLP-1R [2]; [4]): 100%

O=C(O)c1ccc2nc(CN3CCC(c4cccc(OCc5ccc(Cl)cc5F)n4)CC3)n(Cc3ncco3)c2c1 [Compound 156B, 2-[(4-{6-[(4-chloro-2-fluorobenzyl)oxy]pyridin-2-yl}piperidin-1-yl)methyl]-1-(1,3-oxazol-2-ylmethyl)-1H-benzimidazole-6-carboxylic acid]
EC50 (human GLP-1R [1]): 0.96 nM
Emax (human GLP-1R [1]; [3]): 80%
EC50 (human GLP-1R [2]): 14 nM
Emax (human GLP-1R [2]; [4]): 95%

O=C(O)c1ccc2nc(CN3CCC(c4cccc(OCc5ccc(F)cc5F)n4)CC3)n(Cc3cnco3)c2c1 [Compound 157B, 2-[(4-{6-[(2,4-difluorobenzyl)oxy]pyridin-2-yl}piperidin-1-yl)methyl]-1-(1,3-oxazol-5-ylmethyl)-1H-benzimidazole-6-carboxylic acid]
EC50 (human GLP-1R [1]): 8.5 nM
Emax (human GLP-1R [1]; [3]): 88%
EC50 (human GLP-1R [2]): 220 nM
Emax (human GLP-1R [2]; [4]): 110%

O=C(O)c1ccc2nc(CN3CCN(c4cccc(OCc5ccc(Cl)cc5F)n4)CC3)n(Cc3cnco3)c2c1 [Compound 158B, 2-[(4-{6-[(4-chloro-2-fluorobenzyl)oxy]pyridin-2-yl}piperazin-1-yl)methyl]-1-(1,3-oxazol-5-ylmethyl)-1H-benzimidazole-6-carboxylic acid]
EC50 (human GLP-1R [1]): 14 nM
Emax (human GLP-1R [1]; [3]): 72%
EC50 (human GLP-1R [2]): 190 nM
Emax (human GLP-1R [2]; [4]): 83%

CCn1nncc1Cn1c(CN2CCN(c3cccc(OCc4ccc(C#N)cc4F)n3)CC2)nc2ccc(C(=O)O)cc21 [Compound 159B, 2-[(4-{6-[(4-cyano-2-fluorobenzyl)oxy]pyridin-2-yl}piperazin-1-yl)methyl]-1-[(1-ethyl-1H-1,2,3-triazol-5-yl)methyl]-1H-benzimidazole-6-carboxylic acid]
EC50 (human GLP-1R [1]): 0.5 nM
Emax (human GLP-1R [1]; [3]): 73%
EC50 (human GLP-1R [2]): 22 nM
